Data: ChEMBL document CHEMBL1150976, “The selectivity of protein kinase inhibitors: a further update” (Biochem J, 2007)
Values belong to the compound of their own block, whether it stands above or below them.

Assays:
[1] = target: T1, Inhibitor of nuclear factor kappa-B kinase subunit epsilon (Homo sapiens) (UniProt Q14164); test: Percentage IKKepsilon activity remaining in the presence of 0.01uM inhibitor; details: filed as antagonist
T1 sequence (whole entry): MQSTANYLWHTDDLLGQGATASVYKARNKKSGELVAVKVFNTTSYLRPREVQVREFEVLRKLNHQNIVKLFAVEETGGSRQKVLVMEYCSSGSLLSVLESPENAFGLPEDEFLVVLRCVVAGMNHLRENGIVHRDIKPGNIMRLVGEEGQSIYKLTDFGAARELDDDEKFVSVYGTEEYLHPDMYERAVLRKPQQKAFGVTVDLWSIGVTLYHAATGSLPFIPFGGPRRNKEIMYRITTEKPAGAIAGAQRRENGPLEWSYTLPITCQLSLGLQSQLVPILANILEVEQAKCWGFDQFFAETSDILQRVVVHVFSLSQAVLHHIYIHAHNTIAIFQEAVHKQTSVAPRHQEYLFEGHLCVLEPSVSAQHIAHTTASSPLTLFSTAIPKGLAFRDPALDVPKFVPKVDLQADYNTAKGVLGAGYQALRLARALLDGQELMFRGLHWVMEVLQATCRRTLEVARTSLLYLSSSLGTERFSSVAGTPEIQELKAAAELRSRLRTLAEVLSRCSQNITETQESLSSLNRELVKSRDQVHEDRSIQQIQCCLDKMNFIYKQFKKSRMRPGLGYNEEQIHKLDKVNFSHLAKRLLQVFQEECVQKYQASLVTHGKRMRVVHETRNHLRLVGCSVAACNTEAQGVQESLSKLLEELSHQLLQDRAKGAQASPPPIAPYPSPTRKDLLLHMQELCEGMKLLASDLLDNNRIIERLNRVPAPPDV

[2] = target: Homeodomain-interacting protein kinase 2 (Homo sapiens) (UniProt Q9H2X6); test: Percentage HIPK2 activity remaining in the presence of 3uM inhibitor
[3] = target: Proto-oncogene tyrosine-protein kinase Src (Gallus gallus, UniProt P00523); test: Inhibition of Src in the presence of 50uM ATP
[4] = target: Mitogen-activated protein kinase 9 (Homo sapiens, UniProt P45984); test: Percentage JNK2 activity remaining in the presence of 3uM inhibitor
[5] = target: Serine/threonine-protein kinase PAK 5 (Homo sapiens) (UniProt Q9P286); test: Percentage PAK5 activity remaining in the presence of 3uM inhibitor
[6] = target: T2, Inhibitor of nuclear factor kappa-B kinase subunit beta (Homo sapiens) (UniProt O14920); test: Percentage IKK-beta activity remaining in the presence of 3uM inhibitor
T2 sequence (whole entry): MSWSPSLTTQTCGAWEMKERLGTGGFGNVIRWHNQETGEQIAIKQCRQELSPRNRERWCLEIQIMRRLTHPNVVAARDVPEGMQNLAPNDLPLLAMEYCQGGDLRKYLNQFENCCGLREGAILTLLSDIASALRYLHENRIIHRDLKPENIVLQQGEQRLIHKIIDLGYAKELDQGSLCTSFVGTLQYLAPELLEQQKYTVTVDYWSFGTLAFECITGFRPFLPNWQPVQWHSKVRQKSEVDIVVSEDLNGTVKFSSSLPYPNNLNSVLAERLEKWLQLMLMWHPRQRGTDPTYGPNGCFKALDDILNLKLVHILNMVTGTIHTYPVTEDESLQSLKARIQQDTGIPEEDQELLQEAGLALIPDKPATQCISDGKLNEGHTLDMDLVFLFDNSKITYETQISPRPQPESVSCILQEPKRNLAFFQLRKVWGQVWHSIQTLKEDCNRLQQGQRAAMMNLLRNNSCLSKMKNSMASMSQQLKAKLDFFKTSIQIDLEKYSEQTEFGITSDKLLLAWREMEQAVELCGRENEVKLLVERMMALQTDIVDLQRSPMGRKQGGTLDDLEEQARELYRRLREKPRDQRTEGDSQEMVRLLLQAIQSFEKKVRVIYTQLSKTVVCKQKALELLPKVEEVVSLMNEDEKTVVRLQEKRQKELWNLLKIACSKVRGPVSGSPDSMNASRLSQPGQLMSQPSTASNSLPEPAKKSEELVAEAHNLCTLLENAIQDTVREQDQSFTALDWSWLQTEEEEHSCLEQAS

[7] = target: T3, Dual specificity tyrosine-phosphorylation-regulated kinase 3 (Homo sapiens) (UniProt O43781); test: Percentage DYRK3 activity remaining in the presence of 3uM inhibitor
T3 sequence (whole entry): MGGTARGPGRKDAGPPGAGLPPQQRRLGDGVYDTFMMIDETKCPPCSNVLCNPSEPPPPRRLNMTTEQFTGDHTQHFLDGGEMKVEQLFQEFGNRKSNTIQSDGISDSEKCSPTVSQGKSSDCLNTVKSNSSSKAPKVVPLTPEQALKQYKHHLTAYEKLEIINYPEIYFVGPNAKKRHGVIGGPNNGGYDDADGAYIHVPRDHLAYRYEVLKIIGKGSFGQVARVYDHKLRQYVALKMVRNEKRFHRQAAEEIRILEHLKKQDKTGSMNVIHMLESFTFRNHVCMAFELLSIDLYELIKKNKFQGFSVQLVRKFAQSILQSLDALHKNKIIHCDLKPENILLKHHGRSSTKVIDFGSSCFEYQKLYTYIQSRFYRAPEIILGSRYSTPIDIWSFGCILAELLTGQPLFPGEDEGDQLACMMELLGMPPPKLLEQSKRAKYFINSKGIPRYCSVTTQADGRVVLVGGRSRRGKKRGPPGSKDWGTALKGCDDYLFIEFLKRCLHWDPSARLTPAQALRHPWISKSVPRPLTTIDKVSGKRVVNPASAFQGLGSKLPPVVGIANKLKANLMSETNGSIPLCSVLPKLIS

[8] = target: Ribosomal protein S6 kinase beta-1 (Homo sapiens, UniProt P23443); test: Inhibition of S6K1 in the presence of 20uM ATP
[9] = target: Serine/threonine-protein kinase PLK1 (Homo sapiens, UniProt P53350); test: Percentage PLK1 activity remaining in the presence of 3uM inhibitor
[10] = target: Calcium/calmodulin-dependent protein kinase kinase 1 (Homo sapiens) (UniProt Q8N5S9); test: Percentage CaMKKalpha activity remaining in the presence of 3uM inhibitor
Aurora kinase B = Aurora kinase B (Homo sapiens, UniProt Q96GD4); test: Percentage Aurora B activity remaining in the presence of 2uM inhibitor
[11] = target: Homeodomain-interacting protein kinase 2 (Homo sapiens) (UniProt Q9H2X6); test: Percentage HIPK2 activity remaining in the presence of 2uM inhibitor; details: filed as antagonist
[12] = target: Proto-oncogene tyrosine-protein kinase LCK (Mus musculus) (UniProt P06240); test: Percentage Lck activity remaining in the presence of 2uM inhibitor
[13] = target: Ribosomal protein S6 kinase alpha-5 (Homo sapiens) (UniProt O75582); test: Percentage MSK1 activity remaining in the presence of 2uM inhibitor
[14] = target: Mitogen-activated protein kinase 1 (Homo sapiens) (UniProt P28482); test: Percentage ERK2 activity remaining in the presence of 2uM inhibitor
[15] = target: Tyrosine-protein kinase CSK (Homo sapiens, UniProt P41240); test: Percentage CSK activity remaining in the presence of 2uM inhibitor
Sequence of Tyrosine-protein kinase CSK (P41240 2-450 limits assumed): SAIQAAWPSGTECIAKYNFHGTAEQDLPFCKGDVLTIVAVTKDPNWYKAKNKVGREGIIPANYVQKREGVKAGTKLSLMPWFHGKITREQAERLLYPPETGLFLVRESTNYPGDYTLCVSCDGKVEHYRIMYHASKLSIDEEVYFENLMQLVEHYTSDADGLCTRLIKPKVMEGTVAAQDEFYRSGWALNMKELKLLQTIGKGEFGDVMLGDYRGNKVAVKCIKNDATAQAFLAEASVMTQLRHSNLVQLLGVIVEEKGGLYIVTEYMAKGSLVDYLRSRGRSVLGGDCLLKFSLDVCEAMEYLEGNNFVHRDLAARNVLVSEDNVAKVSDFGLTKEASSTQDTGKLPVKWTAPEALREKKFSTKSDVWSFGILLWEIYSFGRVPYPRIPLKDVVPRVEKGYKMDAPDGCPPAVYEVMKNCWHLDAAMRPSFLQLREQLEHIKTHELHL

Sequence of Homeodomain-interacting protein kinase 2 (Homo sapiens) (Q9H2X6 whole entry, looked up): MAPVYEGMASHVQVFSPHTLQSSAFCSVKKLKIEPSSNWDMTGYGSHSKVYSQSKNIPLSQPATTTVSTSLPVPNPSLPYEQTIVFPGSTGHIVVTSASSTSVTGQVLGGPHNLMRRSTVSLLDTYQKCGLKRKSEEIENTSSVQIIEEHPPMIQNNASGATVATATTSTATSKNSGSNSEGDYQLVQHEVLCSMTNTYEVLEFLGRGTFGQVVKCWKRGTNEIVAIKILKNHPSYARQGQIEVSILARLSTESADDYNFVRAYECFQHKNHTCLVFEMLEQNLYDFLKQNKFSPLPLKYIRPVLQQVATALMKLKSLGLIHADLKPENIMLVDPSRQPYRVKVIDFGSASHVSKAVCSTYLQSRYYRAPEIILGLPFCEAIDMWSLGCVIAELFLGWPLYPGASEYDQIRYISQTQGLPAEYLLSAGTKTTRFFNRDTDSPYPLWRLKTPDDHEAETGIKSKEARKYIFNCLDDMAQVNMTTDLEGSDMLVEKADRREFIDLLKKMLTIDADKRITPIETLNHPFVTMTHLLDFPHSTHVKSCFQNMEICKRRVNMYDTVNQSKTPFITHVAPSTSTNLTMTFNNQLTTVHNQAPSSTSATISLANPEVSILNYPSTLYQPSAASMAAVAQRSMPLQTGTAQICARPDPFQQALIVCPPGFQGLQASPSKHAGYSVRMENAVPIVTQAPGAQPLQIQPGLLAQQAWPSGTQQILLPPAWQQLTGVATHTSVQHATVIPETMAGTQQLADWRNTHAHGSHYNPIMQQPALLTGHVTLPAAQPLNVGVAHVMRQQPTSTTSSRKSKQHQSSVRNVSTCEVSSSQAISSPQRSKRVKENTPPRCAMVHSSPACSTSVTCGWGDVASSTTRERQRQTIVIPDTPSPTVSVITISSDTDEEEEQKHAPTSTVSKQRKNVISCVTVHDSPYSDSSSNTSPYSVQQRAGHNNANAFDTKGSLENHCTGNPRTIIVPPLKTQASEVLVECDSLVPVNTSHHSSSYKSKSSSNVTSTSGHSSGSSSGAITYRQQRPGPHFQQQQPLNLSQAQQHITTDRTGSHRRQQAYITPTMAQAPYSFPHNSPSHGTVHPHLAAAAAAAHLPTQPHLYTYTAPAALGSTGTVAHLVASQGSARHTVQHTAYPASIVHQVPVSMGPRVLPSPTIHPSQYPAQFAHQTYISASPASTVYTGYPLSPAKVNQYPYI
Sequence of Serine/threonine-protein kinase PLK1 (P53350 whole entry): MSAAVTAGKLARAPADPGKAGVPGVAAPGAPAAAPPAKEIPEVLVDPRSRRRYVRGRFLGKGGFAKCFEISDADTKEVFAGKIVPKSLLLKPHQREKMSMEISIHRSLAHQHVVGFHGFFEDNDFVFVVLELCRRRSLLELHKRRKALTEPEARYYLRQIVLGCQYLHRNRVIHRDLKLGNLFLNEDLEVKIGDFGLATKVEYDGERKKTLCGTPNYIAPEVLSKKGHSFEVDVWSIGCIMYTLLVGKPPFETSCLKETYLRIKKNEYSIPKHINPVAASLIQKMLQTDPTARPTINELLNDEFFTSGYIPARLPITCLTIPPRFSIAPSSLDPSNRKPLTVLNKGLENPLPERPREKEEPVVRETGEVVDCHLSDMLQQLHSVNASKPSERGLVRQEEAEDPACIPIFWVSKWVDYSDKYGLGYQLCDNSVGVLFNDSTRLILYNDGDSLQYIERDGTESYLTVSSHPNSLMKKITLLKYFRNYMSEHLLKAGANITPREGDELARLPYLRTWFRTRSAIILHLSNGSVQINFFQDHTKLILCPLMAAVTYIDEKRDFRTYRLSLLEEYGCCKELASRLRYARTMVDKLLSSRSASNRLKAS
Sequence of Ribosomal protein S6 kinase alpha-5 (Homo sapiens) (O75582 whole entry, looked up): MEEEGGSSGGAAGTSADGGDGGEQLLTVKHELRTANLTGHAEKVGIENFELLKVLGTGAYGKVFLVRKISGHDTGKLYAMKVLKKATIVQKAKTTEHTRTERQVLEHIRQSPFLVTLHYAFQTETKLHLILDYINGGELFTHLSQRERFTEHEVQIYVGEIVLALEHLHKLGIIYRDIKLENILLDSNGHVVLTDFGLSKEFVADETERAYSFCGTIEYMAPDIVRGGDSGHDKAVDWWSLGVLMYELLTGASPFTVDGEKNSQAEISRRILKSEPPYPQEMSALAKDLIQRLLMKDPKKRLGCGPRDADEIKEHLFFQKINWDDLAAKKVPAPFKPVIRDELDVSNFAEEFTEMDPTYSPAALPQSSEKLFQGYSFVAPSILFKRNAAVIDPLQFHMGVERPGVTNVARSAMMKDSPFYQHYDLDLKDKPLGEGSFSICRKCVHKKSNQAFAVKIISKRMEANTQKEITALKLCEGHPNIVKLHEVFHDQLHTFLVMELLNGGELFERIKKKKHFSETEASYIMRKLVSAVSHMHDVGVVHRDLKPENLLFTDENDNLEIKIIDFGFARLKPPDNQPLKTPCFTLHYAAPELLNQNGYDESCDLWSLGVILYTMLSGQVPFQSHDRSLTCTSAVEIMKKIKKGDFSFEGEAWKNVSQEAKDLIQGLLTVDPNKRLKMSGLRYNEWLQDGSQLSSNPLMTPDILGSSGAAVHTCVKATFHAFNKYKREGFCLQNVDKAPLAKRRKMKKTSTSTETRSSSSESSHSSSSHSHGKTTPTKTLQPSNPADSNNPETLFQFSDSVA
Sequence of Ribosomal protein S6 kinase beta-1 (P23443 whole entry): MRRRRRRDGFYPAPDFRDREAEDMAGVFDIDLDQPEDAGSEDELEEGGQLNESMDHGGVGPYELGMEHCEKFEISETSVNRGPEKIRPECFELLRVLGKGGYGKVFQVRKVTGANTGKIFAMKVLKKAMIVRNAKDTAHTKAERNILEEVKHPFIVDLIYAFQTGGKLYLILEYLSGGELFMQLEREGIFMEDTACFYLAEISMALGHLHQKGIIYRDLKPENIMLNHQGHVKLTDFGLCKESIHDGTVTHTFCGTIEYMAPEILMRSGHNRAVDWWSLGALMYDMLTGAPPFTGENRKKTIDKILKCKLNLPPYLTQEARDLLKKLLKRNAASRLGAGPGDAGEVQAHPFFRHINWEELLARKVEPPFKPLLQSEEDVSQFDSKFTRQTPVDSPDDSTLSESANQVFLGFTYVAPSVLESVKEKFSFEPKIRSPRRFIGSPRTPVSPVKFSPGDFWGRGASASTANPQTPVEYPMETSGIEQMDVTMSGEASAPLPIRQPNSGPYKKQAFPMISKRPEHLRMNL
Sequence of Mitogen-activated protein kinase 9 (P45984 whole entry, looked up): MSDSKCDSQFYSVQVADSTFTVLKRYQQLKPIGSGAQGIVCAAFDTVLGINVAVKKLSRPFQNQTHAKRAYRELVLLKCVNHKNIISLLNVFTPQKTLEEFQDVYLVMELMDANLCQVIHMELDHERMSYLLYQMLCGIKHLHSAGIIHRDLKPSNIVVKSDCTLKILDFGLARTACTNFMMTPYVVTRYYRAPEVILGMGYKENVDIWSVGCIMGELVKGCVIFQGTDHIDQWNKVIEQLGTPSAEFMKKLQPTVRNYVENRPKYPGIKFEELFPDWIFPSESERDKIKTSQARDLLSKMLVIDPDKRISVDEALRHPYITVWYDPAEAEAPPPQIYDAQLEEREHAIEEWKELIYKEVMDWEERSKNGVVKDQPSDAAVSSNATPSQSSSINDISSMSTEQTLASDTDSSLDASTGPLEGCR
Sequence of Aurora kinase B (Q96GD4 whole entry): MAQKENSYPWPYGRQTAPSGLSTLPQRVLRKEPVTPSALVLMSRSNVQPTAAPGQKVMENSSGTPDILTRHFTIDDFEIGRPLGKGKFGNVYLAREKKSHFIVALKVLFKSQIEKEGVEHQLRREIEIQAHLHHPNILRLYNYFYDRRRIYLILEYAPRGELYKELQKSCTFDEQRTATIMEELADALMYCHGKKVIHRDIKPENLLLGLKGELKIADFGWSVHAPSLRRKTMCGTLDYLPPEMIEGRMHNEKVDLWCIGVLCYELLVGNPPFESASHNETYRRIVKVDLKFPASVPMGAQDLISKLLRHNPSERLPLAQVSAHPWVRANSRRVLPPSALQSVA
Sequence of Calcium/calmodulin-dependent protein kinase kinase 1 (Homo sapiens) (Q8N5S9 whole entry, looked up): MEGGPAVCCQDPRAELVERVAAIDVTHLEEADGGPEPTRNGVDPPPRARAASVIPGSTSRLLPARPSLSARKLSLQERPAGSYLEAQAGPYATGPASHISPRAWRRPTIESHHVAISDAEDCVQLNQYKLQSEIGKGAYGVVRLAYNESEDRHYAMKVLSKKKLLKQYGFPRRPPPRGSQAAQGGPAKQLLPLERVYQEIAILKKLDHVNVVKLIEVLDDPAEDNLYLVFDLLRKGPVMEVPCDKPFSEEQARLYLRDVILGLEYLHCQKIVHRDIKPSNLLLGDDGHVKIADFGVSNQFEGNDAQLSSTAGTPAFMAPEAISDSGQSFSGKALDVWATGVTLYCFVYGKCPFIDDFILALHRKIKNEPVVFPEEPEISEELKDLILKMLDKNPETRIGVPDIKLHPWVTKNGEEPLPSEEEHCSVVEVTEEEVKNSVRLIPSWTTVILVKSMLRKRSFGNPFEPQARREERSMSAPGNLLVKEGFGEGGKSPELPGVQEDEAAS

Activity [1]: 21%
Structure (SMILES): O=C(NCCCNc1nc(Nc2cccc(NC(=O)N3CCCC3)c2)ncc1I)c1cccs1

Activity [2]: 79% | IC50 [3]: 0.56 µM (antagonist) | Activity [4]: 83% | Activity [5]: 88% | Activity [6]: 92% | Activity [7]: 68% | IC50 [8]: 0.95 µM (antagonist) | Activity [9]: 82% | Activity [10]: 70%
Structure (SMILES): Cc1ccc(-c2c(C(=O)CF)n(CCCO)c3ncnc(N)c23)cc1

Activity (Aurora kinase B): 87% | Activity [11]: 15% | Activity [12]: 77% | Activity [13]: 69% | Activity [14]: 97% | Activity [15]: 88%
Structure (SMILES): Cn1cc(C2=C(c3ccc(Cl)cc3Cl)C(=O)NC2=O)c2ccccc21
